From patent US12295973B2 (Fred Hutchinson Cancer Center, priority 2017, dated 2025)

Test system: mice exposed to L-TBI
Test: Mouse survival after lethal total body irradiation (L-TBI, 840cGy)
Type: in vivo
Conditions: MDV3100 24 h after L-TBI, alone
Source text: Description. Inhibition of sex steroids, which can be achieved in a reversible fashion pharmacologically, is a well-described strategy to promote lymphopoiesis in the BM and thymus^8,7,14,15. Although the most common method of sex steroid ablation clinically has been to use LHRH-agonists, it was described that an LHRH-Antagonist represents a more rational approach to promote immediate ablation of sex steroids for immune regeneration as it is far more rapid and abrogates the initial surge in sex steroids that LHRH-Agonist cause^16. Taken together with the impact of sex steroid inhibition on HSC function and the rapid regenerative effects of LHRH-Ant, it was hypothesized that LHRH-Ant could represent a rational non-cellular medical countermeasure for mitigating radiation injury and promoting hematopoietic regeneration when administered after hematopoietic insult. […] It was then tested if LHRH-Ant could mediate even greater mouse survival when administered multiple times.
Methods. […] B6.SJL-Ptprca Pepcb/BoyJ (CD45.1) male mice (The Jackson Laboratory) were used between 7 and 12 weeks of age for transplant. Mice were irradiated with a Gammacell 40 Irradiator (Cs-137), with an average dose rate of 95 cGy/min, in a plexiglass mouse pie cage. To assess mouse survival after radiation, mice were monitored for up to 60 days after TBI. To adjust for differences in weight, identical mice were purchased from Jackson and cages randomly distributed over different groups. All animal protocols were approved by the Memorial Sloan Kettering Cancer Center Institutional Animal Care and Use Committee.
Reagents: Degarelix (as acetate), a LHRH-Ant (Firmagon), was resuspended in sterile water for injection and administered S.C. to mice at a dose of 40 mg/kg. To evaluate the radiomitigative effect of LHRH-Ant on survival, mice were treated subcutaneously (S.C.) with a single injection of the LHRH-Ant or a saline control solution (PBS). Degarelix was purchased from the Memorial Sloan-Kettering Cancer Center Pharmacy. […] MDV3100 (selleckchem) was resuspended in a mixture of 45% PBS, 45% PEG and 10% DMSO and administered daily to mice by oral gavage at a dose of 10 mg/kg. 5-FU (InvivoGen) was administered to mice intraperitoneally (I.P.) at a dose of 150 mg/kg once every 7 days consecutively for 3 times as previously described^34,47,49.

CNC(=O)c1ccc(N2C(=S)N(c3ccc(C#N)c(C(F)(F)F)c3)C(=O)C2(C)C)cc1F [MDV3100, enzalutamide]
survival after L-TBI: did not mediate any survival benefit
